Assay results reported in ChEMBL document CHEMBL1136385, “Synthesis and pharmacological activity of fluorescent histamine H2 receptor antagonists related to potentidine” (Bioorg Med Chem Lett, 2003).

What follows are compounds tested against Histamine H2 receptor (Cavia porcellus, UniProt P47747) (assay: Histamine H2 receptor antagonistic activity on the isolated spontaneously beating guinea pig right atrium). Settings: read-out: pA2 (converted).
Format: functional, tissue-based, Cardiac atrium

Histamine H2 receptor, sequence (P47747 whole entry): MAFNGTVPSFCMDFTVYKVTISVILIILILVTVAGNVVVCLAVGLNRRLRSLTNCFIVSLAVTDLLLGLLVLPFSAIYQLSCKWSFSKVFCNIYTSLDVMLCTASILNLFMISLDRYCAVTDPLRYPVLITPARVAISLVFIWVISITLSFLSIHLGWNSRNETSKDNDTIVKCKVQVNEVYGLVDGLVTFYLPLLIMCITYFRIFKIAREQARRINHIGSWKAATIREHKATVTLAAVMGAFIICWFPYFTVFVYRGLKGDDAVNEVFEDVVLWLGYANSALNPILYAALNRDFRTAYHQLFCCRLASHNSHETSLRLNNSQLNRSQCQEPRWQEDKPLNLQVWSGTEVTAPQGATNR

Compound	Kb
N#CN/C(=N\CCN)NCCCOc1cccc(CN2CCCCC2)c1	1100 nM
N#CN/C(=N\CCCCNC(=O)c1ccc(C2c3ccc(O)cc3OC3=CC(=O)C=CC32)c(C(=O)O)c1)NCCCOc1cccc(CN2CCCCC2)c1 (stereo not given)	8910 nM
CN(C)c1cccc2c(S(=O)(=O)NCC/N=C(\NC#N)NCCCOc3cccc(CN4CCCCC4)c3)cccc12	1950 nM
N#CN=C(NCCCCCCCCNc1ccc([N+](=O)[O-])c2n[o+][n-]c12)NCCCOc1cccc(CN2CCCCC2)c1	11 nM
N#CN/C(=N\CCNC(=O)c1ccc(C2c3ccc(O)cc3OC3=CC(=O)C=CC32)c(C(=O)O)c1)NCCCOc1cccc(CN2CCCCC2)c1 (stereo not given)	66100 nM
CC(=O)c1ccc2n(c1=O)[C@H](COC(=O)CCC(=O)NCCCOc1cccc(CN3CCCCC3)c1)Cc1c-2[nH]c2ccccc12	1820 nM
CC(=O)OCC(=O)NCCCOc1cccc(CN2CCCCC2)c1 [ROXATIDINE ACETATE]	38.9 nM
N#CN/C(=N\CCCCNC(=O)c1ccc(C(=O)O)c(C2c3ccc(O)cc3OC3=CC(=O)C=CC32)c1)NCCCOc1cccc(CN2CCCCC2)c1 (stereo not given)	10000 nM
CN/C(=C/[N+](=O)[O-])NCCSCc1ccc(CN(C)C)o1 [RANITIDINE]	170 nM
N#CN/C(=N\CCNC(=O)c1ccc(C(=O)O)c(C2c3ccc(O)cc3OC3=CC(=O)C=CC32)c1)NCCCOc1cccc(CN2CCCCC2)c1 (stereo not given)	44700 nM
NC(N)=Nc1nc(CSCCC(N)=NS(N)(=O)=O)cs1 [FAMOTIDINE]	18.2 nM
N#CN/C(=N\CCCNc1ccc([N+](=O)[O-])c2nonc12)NCCCOc1cccc(CN2CCCCC2)c1	37.2 nM
N#CN/C(=N\CCNC(=O)CCCCCNc1ccc([N+](=O)[O-])c2nonc12)NCCCOc1cccc(CN2CCCCC2)c1	25.7 nM
N#CN/C(=N\CCCCCCNc1ccc([N+](=O)[O-])c2nonc12)NCCCOc1cccc(CN2CCCCC2)c1	32.4 nM
N#CN/C(=N\CCNC(=O)c1c2ccccc2nc2ccccc12)NCCCOc1cccc(CN2CCCCC2)c1	182 nM
